Results on one compound are retold here after publication PMC7264150 (Nature Communications, 2020).

For this test, the target named is T1, Pl-TcdA1 (Photorhabdus luminescens, UniProt Q9RN43).
T1 construct: gene tcdA
It is filed as binding.

For `CC(=O)N[C@H]1C(O)O[C@H](CO)[C@@H](O[C@@H]2O[C@H](CO)[C@H](O)[C@H](O)[C@H]2O[C@@H]2O[C@@H](C)[C@@H](O)[C@@H](O)[C@@H]2O)[C@@H]1O[C@@H]1O[C@@H](C)[C@@H](O)[C@@H](O)[C@@H]1O` (stereo partly shown) [Lewis Y], the “glycan microarray, AlexaFluor488-labelled toxin” value is “tetrasaccharides Lewis Y and sialyl-Lewis X interacted strongly with Pl-TcdA1”.
